Test results taken from patent publication US12660819B2, “Herbicidal derivatives” (SYNGENTA CROP PROTECTION AG, priority 2020, dated 2026).

What was measured:
Format in all cases: in vivo
[1] = system: Amaranthus retoflexus (AMARE); assay: Post-emergence Test (glasshouse, percentage damage to the plant); conditions: post-emergence spray, 1000 g/ha unless otherwise stated, evaluated after 13 days
Method: (§1) Seeds of a variety of test species are sown in standard soil in pots (Amaranthus retoflexus (AMARE), Solanum nigrum (SOLNI), Setaria faberi (SETFA), Lolium perenne (LOLPE), Echinochloa crus-galli (ECHCG), Ipomoea hederacea (IPOHE), Abutilon theophrasti (ABUTH), Zea mays (ZEAMX), Amaranthus palmeri (AMAPA). After 8 days cultivation under controlled conditions in a glasshouse (at 24° C./16° C., day/night; 14 hours light; 65% humidity), the plants are sprayed with an aqueous spray solution derived from the formulation of the technical active ingredient in acetone/water (50:50) solution containing 0.5% Tween 20 (polyoxyethelyene sorbitan monolaurate, CAS RN 9005-64-5). Compounds are applied at 1000 g/ha unless otherwise stated. The test plants are then grown in a glasshouse under controlled conditions in a glasshouse (at 24° C./16° C., day/night; 14 hours light; 65% humidity) and watered twice daily. After 13 days the test is evaluated for the percentage damage caused to the plant. The biological activities are shown in the following table on a five-point scale (5=81-100%; 4=61-80%; 3=41-60%; 2=21-40%; 1=0-20%).

[2] = system: Ipomoea hederacea (IPOHE); assay: as above; conditions: post-emergence spray, 1000 g/ha unless otherwise stated, evaluated after 13 days
Method: as §1

[3] = system: Setaria faberi (SETFA); assay: as above; conditions: post-emergence spray, 1000 g/ha unless otherwise stated, evaluated after 13 days
Method: as §1

[4] = system: Zea mays (ZEAMX); assay: as above; conditions: post-emergence spray, 1000 g/ha unless otherwise stated, evaluated after 13 days
Method: as §1

[5] = system: Amaranthus retoflexus (AMARE); assay: Pre-emergence Test (glasshouse, percentage damage to the plant); conditions: 1000 g/ha unless otherwise stated, five-point scale
[6] = system: Setaria faberi (SETFA); assay: as above; conditions: 1000 g/ha unless otherwise stated, five-point scale
[7] = system: Echinochloa crus-galli (ECHCG); assay: as above; conditions: 1000 g/ha unless otherwise stated, five-point scale
[8] = system: Ipomoea hederacea (IPOHE); assay: as above; conditions: 1000 g/ha unless otherwise stated, five-point scale
[9] = system: Abutilon theophrasti (ABUTH); assay: as above; conditions: 1000 g/ha unless otherwise stated, five-point scale
[10] = system: Zea mays (ZEAMX); assay: as above; conditions: 1000 g/ha unless otherwise stated, five-point scale

| Structure (SMILES) | Post-emergence Test AMARE, percentage damage to the plant (five-point scale) [1] | Post-emergence Test IPOHE, percentage damage to the plant (five-point scale) [2] | Post-emergence Test SETFA, percentage damage to the plant (five-point scale) [3] | Post-emergence Test ZEAMX, percentage damage to the plant (five-point scale) [4] | percentage damage to the plant, AMARE [5] | percentage damage to the plant, SETFA [6] | percentage damage to the plant, ECHCG [7] | percentage damage to the plant, IPOHE [8] | percentage damage to the plant, ABUTH [9] | percentage damage to the plant, ZEAMX [10] |
| --- | --- | --- | --- | --- | --- | --- | --- | --- | --- | --- |
| CCn1c(C)c(-c2ccc(C(F)(F)F)cc2)c(=O)c(C(=O)O)c1-c1ccnc(Cl)c1 [Compound 140, 2-(2-chloro-4-pyridyl)-1-ethyl-6-methyl-4-oxo-5-[4-(trifluoromethyl)phenyl] pyridine-3-carboxylic acid] | 1 (1=0-20%) | 3 (3=41-60%) | 4 (4=61-80%) | 1 (1=0-20%) | 1 (1=0-20%) | 2 (2=21-40%) | 2 (2=21-40%) | 1 (1=0-20%) | 1 (1=0-20%) | 0 |
| CCn1c(C)c(-c2cccc(C(F)(F)F)c2)c(=O)c(C(=O)O)c1-c1ccnc(Cl)c1 [Compound 145, 2-(2-chloro-4-pyridyl)-1-ethyl-6-methyl-4-oxo-5-[3-(trifluoromethyl)phenyl] pyridine-3-carboxylic acid] | 1 (1=0-20%) | 2 (2=21-40%) | 3 (3=41-60%) | 1 (1=0-20%) | 1 (1=0-20%) | 3 (3=41-60%) | 2 (2=21-40%) | 0 | 1 (1=0-20%) | 0 |
| CCn1c(-c2ccc(Cl)c(Cl)c2)c(C(=O)OC)c(=O)c(-c2ccc(Cl)cc2)c1C(F)(F)F [Compound 169, methyl 5-(4-chlorophenyl)-2-(3,4-dichlorophenyl)-1-ethyl-4-oxo-6-(trifluoromethyl) pyridine-3-carboxylate] | 1 (1=0-20%) | 0 | 0 | 1 (1=0-20%) | 0 | 0 | 0 | 0 | 0 | 0 |
| CCn1c(C)c(-c2ccc(C(F)(F)F)c(Cl)c2)c(=O)c(C(=O)O)c1-c1ccc(Cl)cc1 [Compound 170, 2-(4-chlorophenyl)-5-[3-chloro-4-(trifluoromethyl)phenyl]-1-ethyl-6-methyl-4-oxo-pyridine-3-carboxylic acid] | 5 (5=81-100%) | 3 (3=41-60%) | 1 (1=0-20%) | 2 (2=21-40%) | 1 (1=0-20%) | 0 | 0 | 0 | 0 | 0 |
| CCn1c(C)c(-c2ccc(C(F)(F)F)c(Cl)c2)c(=O)c(C(=O)O)c1-c1ccc(Cl)cc1 [Compound 171, 2-(4-chlorophenyl)-5-[3-chloro-4-(trifluoromethyl)phenyl]-1-ethyl-6-methyl-4-oxo-pyridine-3-carboxylic acid] | 3 (3=41-60%) | 4 (4=61-80%) | 3 (3=41-60%) | 2 (2=21-40%) | 0 | 0 | 1 (1=0-20%) | 1 (1=0-20%) | 0 | 0 |
| CCn1c(C)c(-c2cccc(Cl)c2Cl)c(=O)c(C(=O)O)c1-c1ccc(Cl)cc1 [Compound 172, 2-(4-chlorophenyl)-5-(2,3-dichlorophenyl)-1-ethyl-6-methyl-4-oxo-pyridine-3-carboxylic acid] | 2 (2=21-40%) | 4 (4=61-80%) | 4 (4=61-80%) | 2 (2=21-40%) | 1 (1=0-20%) | 3 (3=41-60%) | 3 (3=41-60%) | 1 (1=0-20%) | 1 (1=0-20%) | 0 |
| CCn1c(C)c(-c2cc(C(F)(F)F)ccc2F)c(=O)c(C(=O)O)c1-c1ccc(Cl)cc1 [Compound 177, 2-(4-chlorophenyl)-1-ethyl-5-[2-fluoro-5-(trifluoromethyl)phenyl]-6-methyl-4-oxo-pyridine-3-carboxylic acid] | 4 (4=61-80%) | 3 (3=41-60%) | 4 (4=61-80%) | 3 (3=41-60%) | 1 (1=0-20%) | 2 (2=21-40%) | 1 (1=0-20%) | 3 (3=41-60%) | 3 (3=41-60%) | 0 |
| CCn1c(C)c(-c2cccc(C(F)(F)F)c2F)c(=O)c(C(=O)O)c1-c1ccc(Cl)cc1 [Compound 181, 2-(4-chlorophenyl)-1-ethyl-5-[2-fluoro-3-(trifluoromethyl)phenyl]-6-methyl-4-oxo-pyridine-3-carboxylic acid] | 3 (3=41-60%) | 2 (2=21-40%) | 3 (3=41-60%) | 1 (1=0-20%) | 1 (1=0-20%) | 5 (5=81-100%) | 4 (4=61-80%) | 4 (4=61-80%) | 4 (4=61-80%) | 2 (2=21-40%) |
| CCn1c(C)c(-c2cc(C(F)(F)F)ccc2Cl)c(=O)c(C(=O)O)c1-c1ccc(Cl)cc1 [Compound 183, 2-(4-chlorophenyl)-5-[2-chloro-5-(trifluoromethyl)phenyl]-1-ethyl-6-methyl-4-oxo-pyridine-3-carboxylic acid] | 3 (3=41-60%) | 3 (3=41-60%) | 2 (2=21-40%) | 3 (3=41-60%) | 0 | 0 | 0 | 0 | 0 | 0 |
